Experimental data reported in publication PMC8220737, “Molecular docking, chemo-informatic properties, alpha-amylase, and lipase inhibition studies of benzodioxol derivatives” (BMC Chemistry, 2021).
Values after ≈ are worked out from the molar mass of the structure shown. Values joined by “and” are separate entries in the source; they are usually repeats but may differ in a detail not shown here. Equal entries are not always repeated.

Tests used:
[1] = molecular target: T1, porcine pancreatic amylase enzyme (Sus scrofa, UniProt P00690); test: α-Amylase inhibitory activity (DNSA method); assay type: biochemical; settings: for IC50 (µg/ml) α-amylase / IC50: five concentrations 1, 10, 50, 100, 500 µg/ml, acarbose positive control; for potency relative to acarbose, α-amylase: folds more potent than acarbose
T1 construct: purchased Frutarom (UK)
T1 sequence (P00690 16-511): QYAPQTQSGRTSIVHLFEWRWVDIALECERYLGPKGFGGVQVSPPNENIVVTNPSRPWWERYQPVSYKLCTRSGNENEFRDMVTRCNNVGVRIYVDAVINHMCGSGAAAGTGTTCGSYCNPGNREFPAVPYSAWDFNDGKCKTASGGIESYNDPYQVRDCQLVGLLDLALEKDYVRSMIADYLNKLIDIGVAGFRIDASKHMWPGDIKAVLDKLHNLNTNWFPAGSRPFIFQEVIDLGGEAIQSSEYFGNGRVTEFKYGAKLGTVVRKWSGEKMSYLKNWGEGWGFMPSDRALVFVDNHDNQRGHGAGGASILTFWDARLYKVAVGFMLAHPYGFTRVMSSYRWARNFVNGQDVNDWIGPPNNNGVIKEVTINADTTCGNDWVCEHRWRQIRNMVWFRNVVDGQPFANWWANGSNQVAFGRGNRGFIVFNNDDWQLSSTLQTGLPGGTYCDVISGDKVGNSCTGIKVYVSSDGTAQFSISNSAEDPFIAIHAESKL
Description: The in vitro antidiabetic activity of the synthesized compounds was investigated by assessing their α-amylase inhibitory effects. Acarbose was used as a positive control.
The following materials were purchased from Frutarom (UK): β-carotene, porcine pancreatic amylase enzyme solution, starch, dinitrosalicylic acid (DNSA), methanol, trolox, gallic acid, Na2CO3, and acarbose.
The α-amylase inhibitory assessment was based on the Wickramaratne et al. protocol with some slight alterations in some steps. The experimental part was carried out by following the 3,5-dinitrosalicylic acid (DNSA) procedure. Solutions of 20 mm sodium phosphate monobasic and sodium phosphate dibasic buffer involving 6.7 mm sodium chloride (NaH2PO4 and Na2HPO4, both including 6.7 mm NaCl, pH 6.9) were constructed by partially filling the beaker with NaH2PO4 and NaCl solution; the mixture was subjected to a magnetic stirrer. In contrast, the pH was adjusted by inserting a calibrated pH electrode in the solution. Then, the Na2HPO4 and NaCl solution was gradually added until the pH reached 6.9. A weight of 5.36 g of 20 mm Na2HPO4. 7H2O and 0.39 g of 6.7 mm NaCl were dispersed in distilled water to make 1 L and a weight of 2.76 g of NaH2PO4. […] Working solutions with concentrations of 1, 10, 50, 100 and 500 µg/ml were obtained by mixing 0.01, 0.1, 0.5, 1, and 5 ml of our synthesized molecules, respectively, and then diluting them with a buffer of Na2HPO4/NaH2PO4 (0.02 M) and NaCl (0.006 M) at pH 6.9 and then brined up to 10 ml using VF (10 ml). The acarbose was considered a reference and was established following the same previous steps used for the synthesized molecules.
A starch solution with a concentration of 1% (w/v) was prepared by suspending 1000 mg of starch in 100 ml of distilled water using V.F (100 ml), and then it was kept in a water bath at 37 °C until use, with occasional mixing to prevent starch precipitation. DNSA was used as a reactive reagent to react with reducing sugars to produce 3-amino-5- nitro salicylic acid that is highly absorbent of light at about 540 nm. It was prepared by dissolving 12 g of sodium potassium tartrate tetrahydrate in 8.0 ml of 2 M NaOH (8 g in 100 ml distill. water) then further dissolved in 20 ml of 96 mm of 3.5-dinitrosalicylic acid solution.
Then, 200 μl of the amylase solution (2 units/ml) was gently shaken with 200 μl of each of the VOs established working solutions, and then this was incubated at 37 °C for 10 min. Then 200 μl of the starch solution was added to each test tube, and there was further incubation for 3 min at 37 °C. The addition of 200 μl DNSA terminated the reaction and then boiling for 10 min at 85 to 90 °C. The mixture was then cooled to room temperature and diluted with 5 ml of distilled water, and the absorbance was recorded at 540 nm using a UV–Visible spectrophotometer. Replacement of the synthesized compounds with 200 μl of buffer was established to obtain the blank sample. In this protocol, acarbose was the positive control sample.

[2] = molecular target: T2, porcine pancreatic lipase (Sus scrofa, UniProt P00591); test: Anti-lipase activity (PNPB hydrolysis); assay type: biochemical; settings: for IC50 (µg/ml) Lipase: five dilutions 40, 100, 200, 300, 400 µg/ml, orlistat positive control; for IC50: read-out: IC50 (µg/ml) Lipase (converted)
T2 sequence (P00591 1-450): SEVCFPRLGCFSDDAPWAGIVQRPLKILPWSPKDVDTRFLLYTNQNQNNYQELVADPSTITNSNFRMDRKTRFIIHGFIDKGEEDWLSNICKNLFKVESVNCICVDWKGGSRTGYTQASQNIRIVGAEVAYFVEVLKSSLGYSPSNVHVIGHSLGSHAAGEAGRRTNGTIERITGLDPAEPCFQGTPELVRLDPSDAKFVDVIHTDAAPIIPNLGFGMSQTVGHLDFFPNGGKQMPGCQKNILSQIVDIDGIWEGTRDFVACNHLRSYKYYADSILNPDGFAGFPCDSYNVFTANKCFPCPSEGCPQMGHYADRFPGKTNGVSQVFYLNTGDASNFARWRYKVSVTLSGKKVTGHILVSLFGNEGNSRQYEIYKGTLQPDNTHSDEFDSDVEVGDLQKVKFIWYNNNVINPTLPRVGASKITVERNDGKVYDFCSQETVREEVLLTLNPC
Method: A solution of 1 mg/ml of the synthesized compounds was mixed with 10% dimethyl sulfoxide (DMSO) and then diluted with 10% DMSO to produce five dilutions (40, 100, 200, 300, and 400 µg/ml).
A freshly prepared stock solution of pancreatic lipase enzyme was established by suspending this enzyme in 10% DMSO to form 1 mg/ml. Firstly, 25 mg of lipase was suspended in a small amount of 10% DMSO, bringing the volume up to 25 ml in V.F (25 ml), this was then put in a water bath sonicator at 37 °C for 15 min. […] The pancreatic lipase inhibition assay was conducted by adopting the procedure in the references with slight modifications. From each working solution of the synthesized compounds prepared above, 200 µl of the synthesized compounds were taken and put in a separate test tube, then 100 µl of porcine pancreatic lipase (1 mg/ml) was added to it. The resulting mixture was then adjusted to 1000 µl after addition to the 700 µl of Tris–HCl solution, and then it was incubated in a water bath at 37 °C for 15 min. After the incubation, 100 µl of PNPB (p-nitrophenyl butyrate) solution was added to each test tube. This mixture was then incubated again in a water bath at 37 °C for 30 min. A solution characterized as a negative control was constructed without the synthesized compounds, using 100 µl of porcine pancreatic lipase (1 mg/ml) solution mixed with the Tris–HCl solution up to 1 ml after the addition of 900 µl. […] The % inhibition of the synthesized compounds was calculated by using the following equation: Inhibitory lipase%=Ab-As/Ab∗100

SMILES	IC50 (µg/ml) α-amylase [1]	IC50 (µg/ml) Lipase [2] [µg/mL]	potency relative to acarbose, α-amylase [1]	IC50 [1] [µM]	IC50 [2] [µM]	α-amylase inhibitory activity in words [1]
O=C(O)Cc1cc2c(cc1C(=O)c1cccc(Br)c1)OCO2 [4 g]	4.90 ± 2.21 µg/mL (≈ 13.5 µM)	225.8 ± 1.43 (≈ 622 µM)	–	–	–	–
COC(=O)Cc1cc2c(cc1C(=O)c1cccc(I)c1)OCO2 [3d]	16.36 ± 0.75 µg/mL (≈ 38.6 µM)	118.86 ± 2.1 (≈ 280 µM)	–	–	–	–
O=C(O)Cc1cc2c(cc1C(=O)c1cccc(Cl)c1)OCO2 [4b]	1.25 ± 1.01 µg/mL (≈ 3.92 µM)	> 400	five to six folds more potent than acarbose	–	–	–
COC(=O)Cc1cc2c(cc1C(=O)c1ccccc1I)OCO2 [3c]	39.85 ± 1.3 µg/mL (≈ 93.9 µM)	> 400	–	–	–	–
O=C(O)Cc1cc2c(cc1C(=O)c1ccccc1Br)OCO2 [4f]	–	–	five to six folds more potent than acarbose	3.06	800	–
COc1cc(NC(=O)c2ccc3c(c2)OCO3)cc(OC)c1 [6b]	–	–	–	14.2	335	–
COC(=O)Cc1cc2c(cc1C(=O)c1cccc(Br)c1)OCO2 [3f]	9.29 ± 1.4 µg/mL (≈ 24.6 µM)	> 400	–	–	–	–
COC(=O)Cc1cc2c(cc1C(=O)c1ccccc1)OCO2 [3b]	61.45 ± 1.5 µg/mL (≈ 206 µM)	> 400	–	–	–	lowest activity
O=C(O)Cc1cc2c(cc1C(=O)c1ccccc1Cl)OCO2 [4a]	8.88 ± 2.10 µg/mL (≈ 27.9 µM)	> 400	–	–	–	–
O=C(O)Cc1cc2c(cc1C(=O)c1ccccc1)OCO2 [4c]	4.12 ± 1.63 µg/mL (≈ 14.5 µM)	213.82 ± 2.1 (≈ 752 µM)	–	–	–	–
O=C(O)Cc1cc2c(cc1C(=O)c1ccccc1I)OCO2 [4d]	7.95 ± 1.15 µg/mL (≈ 19.4 µM)	187.7 ± 1.23 (≈ 458 µM)	–	–	–	–
O=C(O)Cc1cc2c(cc1C(=O)c1cccc(I)c1)OCO2 [4e]	3.85 ± 0.98 µg/mL (≈ 9.39 µM)	201.2 ± 2.37 (≈ 491 µM)	–	–	–	–
COC(=O)Cc1cc2c(cc1C(=O)c1ccccc1Cl)OCO2 [3a]	–	–	–	7.57	437	–
COC(=O)Cc1cc2c(cc1C(=O)c1ccccc1Br)OCO2 [3e]	2.57 ± 0.90 µg/mL (≈ 6.81 µM)	78.37 ± 1.72 (≈ 208 µM)	–	–	–	–
COc1ccc(NC(=O)c2ccc3c(c2)OCO3)cc1OC [6a]	8.54 µg/mL and 8.547 ± 1.55 µg/mL	44.47 ± 2.30 (≈ 148 µM)	–	–	–	–
